We go through four compounds from patent US7387895B2, “Monoclonal antibody specific for PPAR gamma, hydridoma cell line producing the same, and method for detecting regulator related to diseases, including inflammation, cancer and metabolic diseases, using the same” (Korea Research Institute of Bioscience and Biotechnology, priority 2003, dated 2008).

One test deals with T1, PPAR gamma (Homo sapiens, UniProt P37231).
T1 sequence (P37231 1-505): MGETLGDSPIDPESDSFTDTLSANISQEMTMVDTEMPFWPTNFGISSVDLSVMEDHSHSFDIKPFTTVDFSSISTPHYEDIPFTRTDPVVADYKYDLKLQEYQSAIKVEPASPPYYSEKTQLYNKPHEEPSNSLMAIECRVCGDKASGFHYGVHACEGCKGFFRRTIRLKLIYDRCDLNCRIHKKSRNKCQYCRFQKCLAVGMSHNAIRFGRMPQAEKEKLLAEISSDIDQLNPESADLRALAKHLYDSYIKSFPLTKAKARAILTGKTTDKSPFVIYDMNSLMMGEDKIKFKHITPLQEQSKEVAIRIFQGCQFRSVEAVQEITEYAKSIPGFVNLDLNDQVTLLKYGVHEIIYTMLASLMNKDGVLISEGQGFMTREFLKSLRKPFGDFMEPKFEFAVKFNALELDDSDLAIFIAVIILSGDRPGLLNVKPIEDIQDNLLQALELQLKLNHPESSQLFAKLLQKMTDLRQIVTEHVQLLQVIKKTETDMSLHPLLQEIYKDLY
As to conditions: components of oxLDL; cited from earlier work.

For test [1], the target named is T2, binding between SRC-1 and PPAR gamma2 proteins (Homo sapiens, UniProt P37231).
T2 construct: made in house; host or cells: E. coli (pGEX4T-1/PPARgamma2, KCTC 10190BP; pET28a/SRC-1, KCTC 10191BP)
In words: ELISA of binding between SRC-1 and PPAR gamma2. As to conditions: 8 μg/ml SRC-1 coated, GST-PPAR gamma2 lysate diluted 64-fold, ligand at different concentrations, FIG. 7B. It counts as biochemical. On the procedure:
To examine the effect of PPAR gamma2 protein concentration on the binding between SRC-1 and PPAR gamma2 proteins, the following test was conducted. […] Also, this procedure was repeated three times, and a GST-fused protein which had not been bound to SRC-1 protein was used as a control group. […] Furthermore, to examine the effect of PPAR gamma2 ligand concentration on the binding between SRC-1 and PPAR gamma2 proteins, the following test was conducted. 8 μg/ml SRC-1 was coated on a plate, and E. coli lysate was diluted 64-fold and added to the plate. Then, indomethacin, a PPAR gamma2 ligand, was added to the plate at a different concentration.
His-SRC-1 protein was diluted with 0.1 M sodium carbonate buffer (pH 9.6) to a concentration of about 800 ng/well. 100 μl of the protein dilution was loaded into each well of an ELISA plate, and coated on the plate overnight at 4° C. The coated plate was washed three times with PBS (containing 0.05% Tween®-20), and added with 3% skimmed-PBST solution and left to stand overnight at 4° C. or for 2 hours at room temperature. A soluble fraction of GST-fused PPAR gamma2 was diluted […], and 50 μl of the dilution was added to each well of the plate. Indomethacin, a PPAR gamma2 agonist, was added at 1 μM, 10 μM and 100 μM. […]
For orientation: An ELISA detects its analyte on a solid surface through an enzyme-linked reagent.

The next test deals with cytokine production. To be noted: cited from earlier work.
The next test relates to NF-κB. As to conditions: cited from earlier work.

Entries after “also recorded” stand apart in the source; their conditions may differ.

T2 sequence (Q15788 whole entry partner, one chain of several): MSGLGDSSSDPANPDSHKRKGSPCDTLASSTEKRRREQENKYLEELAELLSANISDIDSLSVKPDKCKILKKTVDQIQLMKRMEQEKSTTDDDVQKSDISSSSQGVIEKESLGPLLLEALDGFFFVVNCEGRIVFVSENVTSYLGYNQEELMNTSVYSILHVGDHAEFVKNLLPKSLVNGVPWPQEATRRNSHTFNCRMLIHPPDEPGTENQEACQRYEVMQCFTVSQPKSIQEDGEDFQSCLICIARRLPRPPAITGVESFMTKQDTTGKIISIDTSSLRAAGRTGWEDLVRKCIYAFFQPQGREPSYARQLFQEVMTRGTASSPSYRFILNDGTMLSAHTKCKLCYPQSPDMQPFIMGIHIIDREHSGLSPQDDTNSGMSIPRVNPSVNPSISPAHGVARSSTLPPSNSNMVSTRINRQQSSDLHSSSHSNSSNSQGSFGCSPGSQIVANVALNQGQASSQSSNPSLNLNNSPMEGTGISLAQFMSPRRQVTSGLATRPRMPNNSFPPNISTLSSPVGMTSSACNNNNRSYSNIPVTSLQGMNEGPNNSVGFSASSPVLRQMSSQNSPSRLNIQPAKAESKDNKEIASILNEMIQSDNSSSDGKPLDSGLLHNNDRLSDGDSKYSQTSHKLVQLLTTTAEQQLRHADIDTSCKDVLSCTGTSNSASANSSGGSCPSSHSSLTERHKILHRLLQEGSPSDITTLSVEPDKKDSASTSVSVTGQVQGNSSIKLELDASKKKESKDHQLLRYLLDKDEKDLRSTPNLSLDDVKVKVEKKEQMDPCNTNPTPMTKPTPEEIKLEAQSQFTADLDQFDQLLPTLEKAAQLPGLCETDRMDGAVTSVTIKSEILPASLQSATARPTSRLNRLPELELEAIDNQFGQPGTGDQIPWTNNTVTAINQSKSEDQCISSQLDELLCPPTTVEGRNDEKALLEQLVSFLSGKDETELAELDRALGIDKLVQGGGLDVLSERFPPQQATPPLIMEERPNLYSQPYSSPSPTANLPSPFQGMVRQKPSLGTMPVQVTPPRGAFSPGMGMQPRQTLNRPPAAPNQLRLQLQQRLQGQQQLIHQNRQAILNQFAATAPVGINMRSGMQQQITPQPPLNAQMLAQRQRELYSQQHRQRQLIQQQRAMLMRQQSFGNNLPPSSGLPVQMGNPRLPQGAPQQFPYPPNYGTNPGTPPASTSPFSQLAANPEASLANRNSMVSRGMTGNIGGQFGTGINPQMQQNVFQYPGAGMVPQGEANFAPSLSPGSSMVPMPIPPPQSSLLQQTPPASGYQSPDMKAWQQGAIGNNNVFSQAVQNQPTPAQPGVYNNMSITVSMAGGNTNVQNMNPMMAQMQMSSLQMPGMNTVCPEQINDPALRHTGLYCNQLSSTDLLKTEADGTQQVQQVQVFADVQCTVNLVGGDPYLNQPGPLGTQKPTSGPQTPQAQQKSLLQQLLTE

As to `CCCCCC(O)/C=C/C=C\CCCCCCCC(=O)O` (stereo not drawn) [13-HODE], the “PPAR gamma agonist activity” value on PPAR gamma was “PPAR gamma agonists”.
Turning to `CCCCC/C=C\C=C\C(O)CCCCCCCC(=O)O` (stereo not drawn) [9-HODE], on PPAR gamma, the “PPAR gamma agonist activity” value is given as “PPAR gamma agonists”.
For the compound `COc1ccc2c(c1)c(CC(=O)O)c(C)n2C(=O)c1ccc(Cl)cc1` [indomethacin], the “binding between SRC-1 and PPAR gamma2” value in test [1] was “dependent on the concentration of indomethacin; also recorded: increased”.
`CCCCC/C=C/C=C1/C(=O)C=C[C@@H]1C/C=C\CCCC(=O)O` [15d-PGJ2]: the “cytokine production in embryonic stem cells” value in the test on cytokine production (PPAR gamma+/+, +/- or -/- embryonic stem cells) was “inhibited cytokine production”. Further, the “cytokine production of monocytes or macrophages in vitro” value in the test with cytokine production (monocytes or macrophages) is reported as “the most powerful inhibitor”. Further, the NF-κB activity entry with NF-κB is recorded as “inhibit NF-κB activity”.
